Consider 13 compounds from PubChem BioAssay (NCI).

In general, TGI refers to the concentration giving total growth inhibition. A lower TGI goes with greater sensitivity of the cells. One may read the GI50 as the concentration giving 50% growth inhibition.

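Test compounds were applied to cells in 96-well plates for 48 hours at 5 doses. GI50 = concentration required for 50% inhibition of growth. TGI marks complete inhibition of growth.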

Some test systems named below: A549 NSCLC; ACHN renal; EKVX NSCLC; HL-60(TB) leukemia; MDA-MB-435; NCI-H23 lung; OVCAR-4 ovarian; SW-620 colon; RXF 393 renal; MDA-MB-231 breast.
Holding throughout (assay): DTP human tumour cell line panel, 48 h

For the compound `COc1cc([N+](=O)[O-])c(S(=O)(=O)O)cc1-n1nc(C(=O)Nc2ccccc2)n[n+]1-c1cc(S(=O)(=O)[O-])c([N+](=O)[O-])cc1OC`, the TGI in the assay with A549 NSCLC, in the assay with ACHN renal, with EKVX NSCLC, with HL-60(TB) leukemia, in the assay with MDA-MB-435 and in the assay on NCI-H23 lung was > 100 µM in each case. Moreover, the TGI with OVCAR-4 ovarian and with SW-620 colon was > 100 µM throughout.

`COc1ccc(/C=C/C(=O)c2c(-c3ccccc3)nn(C)c(=O)c2N2CCOCC2)cc1`: the TGI in the assay with A549 NSCLC was > 100 µM; in the assay with ACHN renal, > 100 µM; in the assay with EKVX NSCLC, > 100 µM; with HL-60(TB) leukemia, 60.6 µM; in the assay on NCI-H23 lung, > 100 µM; with RXF 393 renal it was > 100 µM. Further, the TGI with SW-620 colon was > 100 µM.

As to `c1ccc2c(c1)Cc1c(Cc3csc4ccccc34)ccc3cccc-2c13`, the TGI in the assay with A549 NSCLC, with ACHN renal, in the assay with EKVX NSCLC, with HL-60(TB) leukemia, in the assay on NCI-H23 lung and in the assay with OVCAR-4 ovarian was > 100 µM in each case. The TGI with RXF 393 renal and in the assay on SW-620 colon was > 100 µM in each case.

As to `CCOC(=O)c1c(C)nc2c(c1N)/C(=C/c1ccccn1)C(=O)N2Cc1ccccc1`, the GI50 in the assay with A549 NSCLC was 2.52 µM; with ACHN renal, 0.906 µM; with EKVX NSCLC, 1.21 µM; in the assay on HL-60(TB) leukemia, 1.61 µM; in the assay with NCI-H23 lung it was 1.29 µM; with OVCAR-4 ovarian, 1.51 µM. In addition, the GI50 in the assay with RXF 393 renal is 0.95 µM; in the assay on SW-620 colon it was 1 µM. Further, the TGI is > 50 µM with A549 NSCLC; 1.76 µM in the assay with ACHN renal; > 50 µM in the assay with EKVX NSCLC; > 50 µM with HL-60(TB) leukemia; 4.35 µM in the assay on NCI-H23 lung; > 50 µM in the assay on OVCAR-4 ovarian. Besides, the TGI in the assay on RXF 393 renal was found to be 1.79 µM; with SW-620 colon, 2.31 µM.

In the case of `COCCc1n(Cc2ccc3ccccc3c2)c2ccccc2[n+]1Cc1ccc2ccccc2c1`, the GI50 in the assay with A549 NSCLC is 1.46 µM; with ACHN renal, 1.61 µM; in the assay with MDA-MB-231 breast, 0.536 µM; in the assay on MDA-MB-435, 0.41 µM; in the assay with OVCAR-4 ovarian it was 0.329 µM; in the assay on SW-620 colon, 1.11 µM. In addition, the TGI in the assay on A549 NSCLC was 3.03 µM; in the assay on ACHN renal, 2.99 µM; in the assay with MDA-MB-231 breast, 1.94 µM; in the assay with MDA-MB-435 it was 1.56 µM; in the assay on OVCAR-4 ovarian, 1.34 µM; with SW-620 colon, 2.59 µM.

On to `Cc1ccc(/C=C/C(=O)c2sc(-n3nc(-c4ccccc4)cc3-c3ccccc3)nc2C)cc1`, for which the TGI with A549 NSCLC, in the assay on ACHN renal, with EKVX NSCLC, in the assay on HL-60(TB) leukemia, with NCI-H23 lung and in the assay on RXF 393 renal was > 100 µM throughout. Further, in the assay on SW-620 colon, the TGI was > 100 µM.

In the case of `O=C(CCC(=O)Nc1cccc(C(F)(F)F)c1)CC(=O)c1ccc2ccccc2c1`, the TGI in the assay with A549 NSCLC, in the assay on ACHN renal, in the assay on EKVX NSCLC, in the assay on HL-60(TB) leukemia, in the assay on NCI-H23 lung and in the assay on OVCAR-4 ovarian was > 100 µM in each case. In the assay with SW-620 colon, the TGI is > 100 µM.

For `COc1cc2c(c(OC)c1OC)-c1ccc(SC)c(=O)cc1[C@@H](NC(=O)C(F)(F)F)CC2`, the TGI with A549 NSCLC was > 100 µM; in the assay with ACHN renal, > 72.3 µM; with EKVX NSCLC, > 100 µM; in the assay with HL-60(TB) leukemia it was 0.194 µM; with MDA-MB-231 breast, > 100 µM; in the assay on NCI-H23 lung, > 4.64 µM. In addition, the TGI is > 100 µM in the assay on OVCAR-4 ovarian, 1.28 µM with RXF 393 renal and > 100 µM in the assay on SW-620 colon.

With `COc1cc(/C=C(\NC(=O)c2ccccc2)c2nc3ncncc3[nH]2)cc(OC)c1OC`, the TGI in the assay on A549 NSCLC, in the assay with ACHN renal, in the assay on EKVX NSCLC, with HL-60(TB) leukemia, in the assay on NCI-H23 lung and with OVCAR-4 ovarian was > 100 µM throughout. The TGI in the assay with RXF 393 renal and with SW-620 colon was > 100 µM in each case.

`NS(=O)(=O)c1ccc(NC(=O)C2C(=O)C(=O)N(c3ccc(S(N)(=O)=O)cc3)C2=O)cc1` (stereo not given): the TGI in the assay with A549 NSCLC, with ACHN renal, in the assay on EKVX NSCLC, with NCI-H23 lung, in the assay with OVCAR-4 ovarian and with RXF 393 renal was > 100 µM throughout. Also, the TGI in the assay on SW-620 colon is > 100 µM.

Consider `CN(C)Cc1ccc(NC(=O)c2cncc(C#Cc3cnc(N)c4ncccc34)c2)cc1F`, for which the GI50 with A549 NSCLC was 2.57 µM; with ACHN renal, 3.28 µM; with EKVX NSCLC, 2 µM; with HL-60(TB) leukemia it was 7.33 µM; in the assay with MDA-MB-231 breast it was 1.6 µM; in the assay with MDA-MB-435, 1.64 µM. Further, the GI50 is 13.7 µM with NCI-H23 lung and 2.23 µM in the assay with SW-620 colon. The TGI with A549 NSCLC worked out at 7.11 µM; in the assay on ACHN renal, 11.4 µM; in the assay with EKVX NSCLC, 4.01 µM; with HL-60(TB) leukemia it was 35.7 µM; in the assay on MDA-MB-231 breast it was 3.13 µM; in the assay with MDA-MB-435, 3.14 µM. In addition, the TGI stood at 34 µM in the assay on NCI-H23 lung and 4 µM in the assay on SW-620 colon.

For `C(=C\C(Sc1ccccc1)c1ccccc1)/NNC1=NC(c2ccccc2)C(c2ccccc2)=NN1` (stereo not given), the total growth inhibition concentration (TGI) in the assay on A549 NSCLC was > 100 µM; in the assay with ACHN renal, > 100 µM; with EKVX NSCLC it was > 100 µM; in the assay on HL-60(TB) leukemia it was 37.6 µM; with NCI-H23 lung it was > 100 µM; in the assay on OVCAR-4 ovarian, > 100 µM. Moreover, the TGI in the assay on SW-620 colon was > 100 µM.

Take `CCc1cc2c(O)c(c1)Cc1cc(CC)cc(c1O)Cc1cc(CC)cc(c1O)Cc1cc(CC)cc(c1O)Cc1cc(CC)cc(c1O)Cc1cc(CC)cc(c1O)Cc1cc(CC)cc(c1O)C2`: the TGI in the assay with A549 NSCLC, in the assay with ACHN renal, in the assay on EKVX NSCLC, with HL-60(TB) leukemia, with NCI-H23 lung and in the assay with OVCAR-4 ovarian was > 100 µM each time. Moreover, the TGI with RXF 393 renal is 43.3 µM; in the assay with SW-620 colon, > 100 µM.
